Measured values: patent publication US20230066011A1, “PYRROLOPYRIMIDINE DERIVATIVE, AND PHARMACEUTICAL COMPOSITION FOR PREVENTING OR TREATING PROTEIN KINASE-RELATED DISEASE COMPRISING SAME AS ACTIVE INGREDIENT” (VORONOI CO., LTD., priority 2019, published 2023)

Key:
Type in all cases: biochemical
LRRK2 (G2019S) = LRRK2 (G2019S) (Homo sapiens, UniProt Q5S007, G2019S); test: LRRK2 G2019S enzyme inhibition, ADP-Glo kinase assay; parameters: purchased SignalChem L10-12GG; conditions: ATP 25 μM
Procedure: To evaluate an inhibitory activity of the compound according to the present invention against LRRK2, LRRK2 (G2019S), DYRK1, CLK1, and TTK kinases, experiments were performed as follows.
Each of the Example compounds was reacted with a purified human LRRK2 G2019S (L10-12GG, SignalChem) enzyme to evaluate an ability to inhibit an enzyme using a method as described below. A composition of 40 mM Tris-HCl (pH 7.4), 20 mM MgCl2, 0.5 mg/mL BSA, and 50 μM DTT was used as a reaction buffer, and all reactions of test substances were performed in the reaction buffer. Each of the compounds was diluted […] from a 10 mM DMSO stock using a serial dilution method, and enzyme activities were measured at final compound concentrations of 50, 10, 2, 0.4, 0.08, 0.016, 0.0032, 0.00064, 0.000128, 0.0000256, 0.00000512, and 0.000001024 μM. In the test, purified ATP (25 μM) and an enzyme substrate (0.2 μg) were reacted with a human LRRK2 G2019S (16 ng) enzyme at 25° C. for 2 hours, and the enzyme activities were then determined using an in vitro ADP-Glo™ kinase assay (Promega). An enzyme-activity reaction solution, an ADP-Glo reaction solution, and an enzyme-ability detection solution were reacted at a ratio of 2:2:1 to measure a degree of inhibition of the enzyme activity with luminescence. The degree of inhibition of the enzyme activity according to the treatment concentration of each of the compounds was calculated based on the fluorescence of the enzyme activity of the solvent control which was not treated with the compound. In this case, the concentration of each of the compounds inhibiting 50% of the enzyme activity was determined to be an IC50 (nM) value, and calculated using Prism (Version 5.01; GraphPad) software.

human GST-DYRK1A = biological target: T1, human GST-DYRK1A (Homo sapiens, UniProt Q13627); test: GST-DYRK1A enzyme inhibition, ADP-Glo kinase assay; conditions: ATP 10 μM, GST-DYRK1A full length, read-out: DYRK1 IC50
T1 construct: purified human GST-DYRK1A (full length, Thermo Scientifics) enzyme; purchased Thermo Scientifics
Summary of the method: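 Full-length human GST-DYRK1A (10 ng) with 10 μM ATP and specific substrate in 40 mM Tris-HCl pH 7.4, 20 mM MgCl2, 0.5 mg/mL BSA, 50 μM DTT, 1 h at 25 °C. ADP formation read by ADP-Glo luminescence relative to solvent control; IC50 from three data sets.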

human GST-CLK1 = biological target: T2, human GST-CLK1 (Homo sapiens, UniProt P49759); test: GST-CLK1 enzyme inhibition, ADP-Glo kinase assay; conditions: ATP 10 μM, GST-CLK1 129-end
T2 construct: purified human GST-CLK1 (129-end, SignalChem) enzyme; purchased SignalChem
Summary of the method: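 Human GST-CLK1 (129-end, 3 ng) reacted with substrate and 10 μM ATP for 1 h at 25° C in 40 mM Tris-HCl pH 7.4, 20 mM MgCl2, 0.5 mg/mL BSA, 50 μM DTT. ADP-Glo luminescence was normalised to solvent control; IC50 (nM) from 3 data sets.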

T2 sequence (P49759 129-484 limits assumed): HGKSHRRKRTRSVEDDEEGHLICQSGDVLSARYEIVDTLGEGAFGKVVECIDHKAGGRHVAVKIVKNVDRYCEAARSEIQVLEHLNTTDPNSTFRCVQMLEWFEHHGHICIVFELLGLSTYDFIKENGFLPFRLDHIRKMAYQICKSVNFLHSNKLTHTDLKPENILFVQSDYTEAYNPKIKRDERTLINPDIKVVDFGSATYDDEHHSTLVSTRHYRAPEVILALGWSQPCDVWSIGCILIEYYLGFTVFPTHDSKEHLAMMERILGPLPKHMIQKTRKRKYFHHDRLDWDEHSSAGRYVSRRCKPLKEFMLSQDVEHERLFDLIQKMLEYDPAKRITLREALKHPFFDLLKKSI
Chain of LRRK2 (G2019S) (Q5S007 970-2527 G2019S limits assumed): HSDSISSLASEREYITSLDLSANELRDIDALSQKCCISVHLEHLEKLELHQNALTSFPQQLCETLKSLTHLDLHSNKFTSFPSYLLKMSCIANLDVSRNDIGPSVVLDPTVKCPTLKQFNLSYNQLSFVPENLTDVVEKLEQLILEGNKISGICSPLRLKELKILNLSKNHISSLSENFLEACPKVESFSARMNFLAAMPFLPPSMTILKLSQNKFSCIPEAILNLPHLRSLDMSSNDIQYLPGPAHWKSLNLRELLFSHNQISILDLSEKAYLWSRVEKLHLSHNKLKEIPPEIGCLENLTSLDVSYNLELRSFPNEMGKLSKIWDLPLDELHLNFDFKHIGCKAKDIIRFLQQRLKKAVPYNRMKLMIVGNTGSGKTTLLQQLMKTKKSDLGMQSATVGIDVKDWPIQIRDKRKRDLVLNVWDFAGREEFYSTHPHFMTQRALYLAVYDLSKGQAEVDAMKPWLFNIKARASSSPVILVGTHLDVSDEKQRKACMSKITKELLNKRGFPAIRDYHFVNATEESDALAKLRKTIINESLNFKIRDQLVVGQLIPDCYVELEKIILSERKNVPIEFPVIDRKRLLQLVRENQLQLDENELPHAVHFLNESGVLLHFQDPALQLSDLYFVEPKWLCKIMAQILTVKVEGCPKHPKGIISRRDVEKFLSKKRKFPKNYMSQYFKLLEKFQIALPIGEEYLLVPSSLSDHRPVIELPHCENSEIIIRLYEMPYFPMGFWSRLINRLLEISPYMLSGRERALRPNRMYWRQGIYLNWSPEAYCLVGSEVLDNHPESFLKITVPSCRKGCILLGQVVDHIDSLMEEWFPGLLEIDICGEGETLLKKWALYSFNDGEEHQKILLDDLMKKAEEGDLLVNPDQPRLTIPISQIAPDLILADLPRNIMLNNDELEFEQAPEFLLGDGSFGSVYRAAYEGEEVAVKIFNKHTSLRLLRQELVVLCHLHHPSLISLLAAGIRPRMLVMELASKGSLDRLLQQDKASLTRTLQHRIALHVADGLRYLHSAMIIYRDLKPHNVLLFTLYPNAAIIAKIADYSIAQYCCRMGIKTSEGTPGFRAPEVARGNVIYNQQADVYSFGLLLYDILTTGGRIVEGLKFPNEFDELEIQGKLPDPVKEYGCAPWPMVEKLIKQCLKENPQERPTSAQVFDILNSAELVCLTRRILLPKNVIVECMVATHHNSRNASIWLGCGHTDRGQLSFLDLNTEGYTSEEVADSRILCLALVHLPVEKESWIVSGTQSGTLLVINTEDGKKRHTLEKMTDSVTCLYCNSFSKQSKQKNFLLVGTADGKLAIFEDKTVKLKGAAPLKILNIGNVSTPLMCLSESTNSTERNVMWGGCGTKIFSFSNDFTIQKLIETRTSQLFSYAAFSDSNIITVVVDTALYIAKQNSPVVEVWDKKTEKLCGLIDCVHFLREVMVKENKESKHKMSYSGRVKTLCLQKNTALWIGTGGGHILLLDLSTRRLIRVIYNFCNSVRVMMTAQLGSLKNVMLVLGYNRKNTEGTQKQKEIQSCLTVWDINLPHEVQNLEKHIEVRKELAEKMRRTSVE

IC50 (LRRK2 (G2019S)) [nM] | IC50 (human GST-DYRK1A) [nM] | IC50 (human GST-CLK1) [nM] | Compound
< 100 | 301 to 1000 | 301 to 1000 | COc1cc(S(C)(=O)=O)ccc1Nc1nc(NC2CCCC2)c2cc[nH]c2n1 [Example 1, N^4-cyclopentyl-N^2-(2-methoxy-4-(methylsulfonyl)phenyl)-7H-pyrrolo[2,3-d]pyrimidine-2,4-diamine]
< 100 | 301 to 1000 | 301 to 1000 | CNc1nc(Nc2ccc(S(=O)(=O)N3CCOCC3)cc2OC)nc2[nH]ccc12 [Example 2, N^2-(2-methoxy-4-(morpholinosulfonyl)phenyl)-N^4-methyl-7H-pyrrolo[2,3-d]pyrimidine-2,4-diamine 2,2,2-trifluoroacetate]
< 100 | 301 to 1000 | 301 to 1000 | CNc1nc(Nc2ccc(S(=O)(=O)N3CCC(N4CCOCC4)CC3)cc2OC)nc2[nH]ccc12 [Example 3, N^2-(2-methoxy-4-((4-morpholinopiperidin-1-yl)sulfonyl)phenyl)-N^4-methyl-7H-pyrrolo[2,3-d]pyrimidine-2,4-diamine 2,2,2-trifluoroacetate]
< 100 | 301 to 1000 | 301 to 1000 | CNc1nc(Nc2ccc(S(C)(=O)=O)cc2OC)nc2[nH]ccc12 [Example 4, N^2-(2-methoxy-4-(methylsulfonyl)phenyl)-N^4-methyl-7H-pyrrolo[2,3-d]pyrimidine-2,4-diamine 2,2,2-trifluoroacetate]
< 100 | 301 to 1000 | 301 to 1000 | CCNc1nc(Nc2ccc(S(=O)(=O)N3CCOCC3)cc2OC)nc2[nH]ccc12 [Example 5, N^4-ethyl-N^2-(2-methoxy-4-(morpholinosulfonyl)phenyl)-7H-pyrrolo[2,3-d]pyrimidine-2,4-diamine 2,2,2-trifluoroacetate]
< 100 | 301 to 1000 | 301 to 1000 | CCNc1nc(Nc2ccc(S(=O)(=O)N3CCC(N4CCOCC4)CC3)cc2OC)nc2[nH]ccc12 [Example 6, N^4-ethyl-N^2-(2-methoxy-4-((4-morpholinopiperidin-1-yl)sulfonyl)phenyl)-7H-pyrrolo[2,3-d]pyrimidine-2,4-diamine 2,2,2-trifluoroacetate]
< 100 | 301 to 1000 | 301 to 1000 | CCCNc1nc(Nc2ccc(S(=O)(=O)N3CCOCC3)cc2OC)nc2[nH]ccc12 [Example 7, N^2-(2-methoxy-4-(morpholinosulfonyl)phenyl)-N^4-propyl-7H-pyrrolo[2,3-d]pyrimidine-2,4-diamine 2,2,2-trifluoroacetate]
< 100 | 301 to 1000 | 301 to 1000 | CCCNc1nc(Nc2ccc(S(=O)(=O)N3CCC(N4CCOCC4)CC3)cc2OC)nc2[nH]ccc12 [Example 8, N^2-(2-methoxy-4-((4-morpholinopiperidin-1-yl)sulfonyl)phenyl)-N^4-propyl-7H-pyrrolo[2,3-d]pyrimidine-2,4-diamine 2,2,2-trifluoroacetate]
< 100 | 301 to 1000 | 301 to 1000 | CCCNc1nc(Nc2ccc(S(C)(=O)=O)cc2OC)nc2[nH]ccc12 [Example 9, N^2-(2-methoxy-4-(methylsulfonyl)phenyl)-N^4-propyl-7H-pyrrolo[2,3-d]pyrimidine-2,4-diamine 2,2,2-trifluoroacetate]
< 100 | 301 to 1000 | 301 to 1000 | COc1cc(S(=O)(=O)N2CCOCC2)ccc1Nc1nc(NCC(C)C)c2cc[nH]c2n1 [Example 10, N^4-isobutyl-N^2-(2-methoxy-4-(morpholinosulfonyl)phenyl)-7H-pyrrolo[2,3-d]pyrimidine-2,4-diamine]
< 100 | 301 to 1000 | 301 to 1000 | COc1cc(S(=O)(=O)N2CCC(N3CCOCC3)CC2)ccc1Nc1nc(NCC(C)C)c2cc[nH]c2n1 [Example 11, N^4-isobutyl-N^2-(2-methoxy-4-((4-morpholinopiperidin-1-yl)sulfonyl)phenyl)-7H-pyrrolo[2,3-d]pyrimidine-2,4-diamine]
< 100 | 301 to 1000 | 301 to 1000 | COc1cc(S(C)(=O)=O)ccc1Nc1nc(NCC(C)C)c2cc[nH]c2n1 [Example 12, N^4-isobutyl-N^2-(2-methoxy-4-(methylsulfonyl)phenyl)-7H-pyrrolo[2,3-d]pyrimidine-2,4-diamine 2,2,2-trifluoroacetate]
< 100 | 301 to 1000 | 301 to 1000 | COc1cc(S(=O)(=O)N2CCOCC2)ccc1Nc1nc(NC(C)C)c2cc[nH]c2n1 [Example 13, N^4-isopropyl-N^2-(2-methoxy-4-(morpholinosulfonyl)phenyl)-7H-pyrrolo[2,3-d]pyrimidine-2,4-diamine 2,2,2-trifluoroacetate]
< 100 | 301 to 1000 | 301 to 1000 | COc1cc(S(C)(=O)=O)ccc1Nc1nc(NC(C)C)c2cc[nH]c2n1 [Example 14, N^4-isopropyl-N^2-(2-methoxy-4-(methylsulfonyl)phenyl)-7H-pyrrolo[2,3-d]pyrimidine-2,4-diamine 2,2,2-trifluoroacetate]
< 100 | 301 to 1000 | 301 to 1000 | COCCNc1nc(Nc2ccc(S(C)(=O)=O)cc2OC)nc2[nH]ccc12 [Example 21, N^2-(2-methoxy-4-(methylsulfonyl)phenyl)-N^4-(2-methoxyethyl)-7H-pyrrolo[2,3-d]pyrimidine-2,4-diamine 2,2,2-trifluoroacetate]
< 100 | 301 to 1000 | 301 to 1000 | COc1cc(S(=O)(=O)N2CCOCC2)ccc1Nc1nc(NC2CCC2)c2cc[nH]c2n1 [Example 22, N^4cyclobutyl-N^2-(2-methoxy-4-(morpholinosulfonyl)phenyl)-7H-pyrrolo[2,3-d]pyrimidine-2,4-diamine]
< 100 | 301 to 1000 | 301 to 1000 | COc1cc(S(=O)(=O)N2CCC(N3CCOCC3)CC2)ccc1Nc1nc(NC2CCC2)c2cc[nH]c2n1 [Example 23, N^4-cyclobutyl-N^2-(2-methoxy-4-((4-morpholinopiperidin-1-yl)sulfonyl)phenyl)-7H-pyrrolo[2,3-d]pyrimidine-2,4-diamine 2,2,2-trifluoroacetate]
< 100 | 301 to 1000 | 301 to 1000 | COc1cc(S(C)(=O)=O)ccc1Nc1nc(NC2CCC2)c2cc[nH]c2n1 [Example 24, N^4-cyclobutyl-N^2-(2-methoxy-4-(methylsulfonyl)phenyl)-7H-pyrrolo[2,3-d]pyrimidine-2,4-diamine]
– | 301 to 1000 | 301 to 1000 | COc1cc(P(C)(C)=O)ccc1Nc1nc(NC2CCC2)c2c(C(F)(F)F)c[nH]c2n1 [Example 386, (4-((4-(cyclo-butylamino)-5-(trifluoromethyl)-7H-pyrrolo[2,3-d]pyrimidin-2-yl)amino)-3-methoxyphenyl) dimethyl phosphine oxide]
– | < 100 | < 100 | CCNc1nc(Nc2ccc(C(=O)N3CCOCC3)c3c2OCC3)nc2[nH]cc(C(F)(F)F)c12 [Example 437, (7-((4-(ethylamino)-5-(trifluoromethyl)-7H-pyrrolo[2,3-d]pyrimidin-2-yl)amino)-2,3-dihydrobenzo-furan-4-yl) (morpholino) methanone]
– | < 100 | < 100 | CCCNc1nc(Nc2ccc(C(=O)N3CCOCC3)c3c2OCC3)nc2[nH]cc(C(F)(F)F)c12 [Example 445, morpholino(7-((4-(propylamino)-5-(trifluoromethyl)-7H-pyrrolo[2,3-d]pyrimidin-2-yl)amino)-2,3-dihydrobenzo-furan-4-yl)methanone]
– | 101 to 300 | 301 to 1000 | O=C(c1ccc(Nc2nc(NCC3CCC3)c3c(C(F)(F)F)c[nH]c3n2)c2c1CCO2)N1CCC(N2CCOCC2)CC1 [Example 462, (7-((4-((cyclo-butylmethyl)amino)-5-(trifluoromethyl)-7H-pyrrolo[2,3-d]pyrimidin-2-yl)amino)-2,3-dihydrobenzo-furan-4-yl)(4-morpho-linopiperidin-1-yl)methanone]
